Assay [1] deals with 661W or C6 cells. Description: MTT assay (protection against calcium-ionophore A23187). The format is cell-based. The following applies: for percent protection against ionophore-induced loss of MTT signal at 0.0008 µM: 800 pM compound; for percent protection against ionophore-induced loss of MTT signal at 0.001 µM: 1 nM compound; for percent protection against ionophore-induced loss of MTT signal at 0.01 µM: 10 nM compound. How it is done:
The compound 3-(4,5-Dimethylthiazol-2-yl)-2,5-diphenyltetrazolium bromide (MTT) is a tetrazolium ion that is reduced to a blue formazan dye via several families of NAD(P)H-dependent oxidoreductases. Formation of the formazan dye from MTT or other related tetrazolium dyes are commonly used as a viability assay even though, in fact, the assay is a metabolic capacity assay.
In this assay, 661W or C6 cells were maintained in DMEM supplemented with 10% FBS. 100 μL of 70,000 cells/mL cells were seeded into each well of 96 well plates using DMEM supplemented with 5% FBS. Cells were then allowed to grow to confluency for 48 hours. The compounds of the invention were added in 2 μL media and calcium-ionophore A23187 was then added in 1 μL for a final concentration of 1 μM and after 24 h, 20 uL of 2 μg/mL MTT were added to each well and the cells were incubated for another 4 h after which 100 μL of 1% SDS in 0.01 M aqueous HCl were added to each well and the plates were incubated overnight. Absorbance was measured at […] (background correction). The 1 μM ionophore A23187 caused about 50% loss in MTT signal at 24 h. Protection was calculated as the increase in absorbance of treatment groups normalized to the vehicle control.

The test system of assay [2] is 661W or C6 cells. Description: XF FCCP-uncoupled oxygen consumption rate assay (IBMX challenge). Format: cell-based. Conditions: 24 h; for activity at 0.1 µM: 100 nM compound; for activity at 0.01 µM: 10 nM compound. How it is done:
XF FCCP-Uncoupled Oxygen Consumption Rate Assay
The XF FCCP-uncoupled oxygen consumption rate assay assesses mitochondrial capacity by measuring cellular respiration. It was shown that the maximum FCCP-uncoupled oxygen consumption rate (OCR) was a good estimate of maximal mitochondrial capacity (Beeson 2010) and that IBMX treatment of 661W or C6 cells for 24 h caused a loss in maximal uncoupled OCR (Perron 2013). Thus, cells were pretreated with the exemplified compounds for 1 h, added 600 μM IBMX and then measured the uncoupled rate after 24 h. The OCR measurements were performed using a Seahorse Bioscience XF instrument (Seahorse Bioscience, Billerica, Md.), as previously published (Perron 2013). O2 leakage through the plastic sides and bottom of the plate was accounted for using the AKOS algorithm in the XF software package. Cells were plated on 96- or 24-well custom plates designed for use in the XF and grown to confluency in DMEM+5% FBS (48 h). The medium was then replaced with DMEM+1% FBS for 24 h, along with any treatments.

The subject of assay [3] is rd1 mouse retinal explants (photoreceptors). Description: Retinal degeneration assay (rd1 mouse retina organ cultures). The format is cell-based. The following applies: explants cultured 11 days, rows of photoreceptors in ONL. The text has this: Retinal Degeneration Assay
It was reasoned that the compounds' activities would enable them to protect against loss of photoreceptors in retinal degenerative animal models. As a translational bridge between the cell line-based assays and in vivo animal studies, mouse retina organ cultures were utilized. These retinal explants were a powerful ex vivo screening tool, which allowed the testing of photoreceptor cell survival within the retinal network, and the effects of a specific compound were tested like in an in vitro system, without systemic interference. In this assay, the rd1 mouse was utilized. The genotype of the rd1 mouse has a mutation in the β-subunit of the phosphodiesterase gene. […] The genetic deficit and the retinal pathology were very similar to that observed in the patients with βPDE-dependent RP. In these mice, rod photoreceptor degeneration started after postnatal day 10 (P10), progressing rapidly, such that at P21, only 1-2 rows of photoreceptor remained, mainly representing cones. Finally, the rd1 mouse retina was amenable to culturing, replicating both retinal development and degeneration, following the same time course as in vivo. […] At the end of the experiments, tissues were fixed, sectioned and stained with 0.1% toluidine and the numbers of rows of photoreceptors remaining in the outer nuclear layer (ONL) were counted.

Assay [4] has as its system Balb/c mice photoreceptors. Briefly: Light model assay (constant light damage, eyedrops). Format: in vivo, mouse. The following applies: 125 μM eyedrops once per day; continuous light 7 days; assessed 10 days after onset. From the text:
The light model assay is generally accepted as a model of age related macular degeneration (AMD). […] In particular, oxidative damage has been detected by immunohistochemistry, detecting the presence of oxidized and tyrosine-phosphorylated proteins as well as the upregulation of endogenous antioxidants such as thioredoxin and glutathione peroxidase. […] Additional indirect evidence for the involvement of oxidative stress in photoreceptor degeneration has been provided by treatment of photodamaged retinas with antioxidants such as dimethylthiourea, or the treatment of N-methyl-N-nitrosourea (MNU)-challenged rats with the antioxidant DHA.
The light model assay was used to further test the therapeutic potential of the compounds of the invention. Photoreceptors from albino animals are very sensitive to constant light, lacking the RPE pigment to protect them. Thus, Balb/c mice were exposed to continuous light for 7 days, which caused loss of about 50% of the photoreceptor cells as measured via histology. To test the potential therapeutic efficacy, eyedrops were formulated in 0.1% Bij 35 in […], applied once or twice daily throughout the period of light exposure, and assessed their effect on the light-induced degeneration of photoreceptor cells morphologically and electrophysiologically, 10 days after the onset of the CL exposure.

Setting [5] is: 1 μM A23187, 24 h, read-out: MTT Protection(%, concentration).
Setting [6] is: 1 h pretreatment, 600 μM IBMX, read-out: XF FCCP OCR (% Ctrl, concentration).

Turning to `CCOC(=O)c1cc(-c2ccccn2)nn1CC(=O)c1ccc(OC)cc1OC` [Example 1, Ethyl 1-(2-(2,4-dimethoxyphenyl)-2-oxoethyl)-3-(pyridin-2-yl)-1H-pyrazole-5-carboxylate], the percent protection against ionophore-induced loss of MTT signal at 0.0008 µM with 661W or C6 cells [1] (setting [5]) was found to be 10.4%. Besides, the activity at 1 µM in the assay with 661W or C6 cells [2] (1 uM compound, 1 h pretreatment, 600 μM IBMX, read-out: XF FCCP OCR (% Ctrl, concentration)) was found to be 58%. In the case of `CCOC(=O)c1cc(-c2ccccn2)n(CC(=O)c2ccc(OC)cc2OC)n1` [Example 2, Ethyl 1-(2-(2,4-dimethoxyphenyl)-2-oxoethyl)-5-(pyridin-2-yl)-1H-pyrazole-3-carboxylate], in the assay with 661W or C6 cells [1] (setting [5]), the percent protection against ionophore-induced loss of MTT signal at 0.0008 µM came out at 73.9%. Moreover, the activity at 0.1 µM with 661W or C6 cells [2] (setting [6]) was found to be 62%. In addition, the “rd1 protection (concentration, # of rows)” value in assay [3] (20 nM) was 20 nM 4.46 # of rows. Regarding `CCOC(=O)c1cc(-c2cccnc2)nn1CC(=O)c1cc(OC)ccc1OC` [Example 3, Ethyl 1-(2-(2,5-dimethoxyphenyl)-2-oxoethyl)-3-(pyridin-3-yl)-1H-pyrazole-5-carboxylate], the percent protection against ionophore-induced loss of MTT signal at 0.001 µM in the assay with 661W or C6 cells [1] (setting [5]) was determined as 43.5%. As for `CCOC(=O)c1cc([Si](C)(C)C)nn1CC(=O)c1ccc(OC)cc1OC` [Example 4, Ethyl 1-(2-(2,4-dimethoxyphenyl)-2-oxoethyl)-3-(trimethylsilyl)-1H-pyrazole-5-carboxylate], the percent protection against ionophore-induced loss of MTT signal at 0.01 µM in the assay with 661W or C6 cells [1] (setting [5]) is 87%. Also, in the assay on 661W or C6 cells [2] (setting [6]), the activity at 0.01 µM turned out to be 67%. The “rd1 protection (concentration, # of rows)” value in assay [3] (10 nM) was 10 nM 3.2 # of rows. Moreover, in assay [4], the “LD Protection (concentration, # of rows)” value is reported as 125 μM 6.42 # of rows. As for `CCOC(=O)c1cc([Si](C)(C)C)nn1CC(=O)c1cc(OC)ccc1OC` [Example 5, Ethyl 1-(2-(2,5-dimethoxyphenyl)-2-oxoethyl)-3-(trimethylsilyl)-1H-pyrazole-5-carboxylate], the percent protection against ionophore-induced loss of MTT signal at 0.01 µM with 661W or C6 cells [1] (setting [5]) came to 76.6%. The activity at 0.01 µM in the assay on 661W or C6 cells [2] (setting [6]) amounted to 72%. Consider `CCOC(=O)c1cc(-c2ccccn2)nn1Cc1cccnc1` [Example 6, Ethyl 3-(pyridin-2-yl)-1-(pyridin-3-ylmethyl)-1H-pyrazole-5-carboxylate], for which the percent protection against ionophore-induced loss of MTT signal at 0.01 µM in the assay with 661W or C6 cells [1] (setting [5]) is 73.5%. Besides, in the assay with 661W or C6 cells [2] (setting [6]), the activity at 0.01 µM turned out to be 75%. Regarding `CCOC(=O)c1cc([Si](C)(C)C)nn1Cc1cc(OC)c(OC)c(OC)c1` [Example 7, Ethyl 1-(3,4,5-trimethoxybenzyl)-3-(trimethylsilyl)-1H-pyrazole-5-carboxylate], the percent protection against ionophore-induced loss of MTT signal at 0.01 µM with 661W or C6 cells [1] (setting [5]) was determined as 40%. Regarding `CCOC(=O)c1cc(-c2cccnc2)nn1CC(=O)c1ccc(OC)cc1OC` [Example 8, Ethyl 1-(2-(2,4-dimethoxyphenyl)-2-oxoethyl)-3-(pyridin-3-yl)-1H-pyrazole-5-carboxylate], the percent protection against ionophore-induced loss of MTT signal at 0.001 µM with 661W or C6 cells [1] (setting [5]) came to 75.6%. Also, in the assay with 661W or C6 cells [2] (setting [6]), the activity at 0.1 µM worked out at 64%. Turning to `CCOC(=O)c1cc([Si](C)(C)C)n(CC(=O)c2cccnc2)n1` [Example 9, Ethyl 1-(2-oxo-2-(pyridin-3-yl)ethyl)-5-(trimethylsilyl)-1H-pyrazole-3-carboxylate], the percent protection against ionophore-induced loss of MTT signal at 0.001 µM with 661W or C6 cells [1] (setting [5]) was determined as 59%. Besides, the activity at 0.1 µM with 661W or C6 cells [2] (setting [6]) was 67%. For the compound `CCOC(=O)c1cc([Si](C)(C)C)nn1CC(=O)c1cccnc1` [Example 10, Ethyl 1-(2-oxo-2-(pyridin-3-yl)ethyl)-3-(trimethylsilyl)-1H-pyrazole-5-carboxylate], the percent protection against ionophore-induced loss of MTT signal at 0.001 µM in the assay on 661W or C6 cells [1] (setting [5]) turned out to be 47.8%.

Consider `CCOC(=O)c1cc(-c2ccccn2)nn1CC(=O)c1cc(OC)ccc1OC` [Example 11, Ethyl 1-(2-(2,5-dimethoxyphenyl)-2-oxoethyl)-3-(pyridin-2-yl)-1H-pyrazole-5-carboxylate], for which the percent protection against ionophore-induced loss of MTT signal at 1 µM in the assay on 661W or C6 cells [1] (1 μM compound, 1 μM A23187, 24 h, read-out: MTT Protection(%, concentration)) came to 28.3%. With `CCOC(=O)c1cc(C(C)C)nn1Cc1c[nH]c2ccccc12` [Example 12, Ethyl 1-((1H-indol-3-yl)methyl)-3-isopropyl-1H-pyrazole-5-carboxylate], in the assay on 661W or C6 cells [1] (setting [5]), the percent protection against ionophore-induced loss of MTT signal at 0.001 µM amounted to 59.4%. With `CNc1ccc2oc(C[C@H]3O[C@@]4(CC[C@H]3C)O[C@H]([C@H](C)C(=O)c3ccc[nH]3)[C@H](C)C[C@H]4C)nc2c1C(=O)O` [Example A23187, reference compound], the “loss in MTT signal” value with 661W or C6 cells [1] (1 μM ionophore alone, 24 h) is listed as “about 50%”. On to `CC(C)Cn1c(=O)n(C)c(=O)c2[nH]cnc21` [IBMX, reference compound], for which, in the assay with 661W or C6 cells [2] (IBMX treatment alone, 600 μM), the “decrease in the uncoupled rate (OCR)” value is recorded as about 50%.
